The record followed here is US7214676B2, “Spirotricyclic derivatives and their use as phosphodiesterase-7 inhibitors” (Warner-Lambert Company LLC, priority 2001, dated 2007).

What is called IC50 is the concentration needed to halve the response being measured.

This assay addresses T1, PDE7A1 (Homo sapiens, UniProt Q13946).
T1 construct: made in house; host or cells: Sf21 insect cells, baculovirus expression system
Put plainly: In vitro inhibition of phosphodiesterase 7. It is filed as biochemical. To be noted: substrate cAMP 50 nM, reaction stopped after 10 minutes; read-out: IC50 PDE7. The method, then: The capacity of the compounds of the invention to inhibit cyclic nucleotide phosphodiesterases was evaluated by measuring their IC50 (concentration necessary to inhibit the enzymatic activity by 50%).
PDE3A3, PDE4D3, PDE7A1 were cloned and expressed in insect cells Sf21 using the baculovirus expression system and we uses directly the cell culture supernatant as enzyme source. The source of PDE1 and of PDE5 were human cell lines (respectively TPH1 human monocytes and MCF7 human breast adenocarcinoma).
They were obtained partially purified on an anion exchange column (Mono Q) according to a method adapted from Lavan B. E., Lakey T., Houslay M. D. Biochemical pharmacology, 1989, 38 (22), 4123–4136.
Measurement of the enzymatic activity for the various types of PDE was then made according to a method adapted from W. J. Thompson et al. 1979, Advances in Cyclic Nucleotide Research, Vol. 10: 69–92, ed. G. Brooker et al. Raven Press, NY.
The substrate used was cGMP for PDE1 and PDE5 and cAMP for PDE 3, PDE 4 and PDE 7. The substrate concentration was 0.2 μM for PDE 1, PDE 3 and PDE 5, 0,25 μM for PDE 4 and 50 nM for PDE 7.
The enzymatic reaction was stopped after 1 hour for PDE 1, PDE 3 and PDE 5 and 10 minutes for PDE 4 and PDE 7.

T1 sequence (Q13946 whole entry, species assumed): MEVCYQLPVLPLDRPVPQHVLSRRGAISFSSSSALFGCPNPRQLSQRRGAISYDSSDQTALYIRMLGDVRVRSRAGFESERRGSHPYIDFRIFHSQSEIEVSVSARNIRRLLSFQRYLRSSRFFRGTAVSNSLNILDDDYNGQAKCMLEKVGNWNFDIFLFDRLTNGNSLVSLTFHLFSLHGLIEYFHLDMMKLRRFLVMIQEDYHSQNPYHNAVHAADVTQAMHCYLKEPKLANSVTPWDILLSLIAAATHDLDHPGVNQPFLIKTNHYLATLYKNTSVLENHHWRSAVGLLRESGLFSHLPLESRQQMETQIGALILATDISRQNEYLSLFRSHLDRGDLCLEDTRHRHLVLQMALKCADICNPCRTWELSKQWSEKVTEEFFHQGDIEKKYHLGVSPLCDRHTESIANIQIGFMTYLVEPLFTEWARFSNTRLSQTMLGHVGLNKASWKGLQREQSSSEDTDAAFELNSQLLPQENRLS

With `O=C1Nc2c(Cl)cc(-c3ccc4[nH]ccc4c3)cc2C2(CCCCC2)N1` [Example 34, 8′-Chloro-6′-(1H-indol-5-yl)spiro[cyclohexane-1-4′-(3′,4′-dihydro)quinazolin]-2′(1H)-one], the IC50 was found to be 12 nM.

For `O=C1Nc2c(Cl)cc(-c3ccc(C(=O)N4CCN(CCN5CCOCC5)CC4)cc3)cc2C2(CCCCC2)N1` [Example 52, 8′-Chloro-6′-[4-(4-(2-morpholin-4-yl-ethyl)-piperazine-1-carbonyl)-phenyl]spiro[-cyclohexane-1-4′-(3′,4′-dihydro)quinazolin]-2′(1′H)-one], the IC50 stood at 15 nM.

With `O=C1Nc2c(Cl)cc(-c3ccc(C(=O)N4CCN(CC(=O)N5CCOCC5)CC4)cc3)cc2C2(CCCCC2)N1` [Example 53, 8′-Chloro-6′-[4-(4-(2-morpholin-4-yl-2-oxo-ethyl)-piperazine-1-carbonyl)-phenyl]spiro[-cyclohexane-1-4′-(3′,4′-dihydro)quinazolin]-2′(1′H)-one], the IC50 was determined as 13 nM.

For the compound `O=C1Nc2c(Cl)cc(-c3ccc(C(=O)N4CCN(c5ncccn5)CC4)cc3)cc2C2(CCCCC2)N1` [Example 51, 8′-Chloro-6′-[4-(4-pyrimidin-2-yl-piperazine-1-carbonyl)phenyl]spiro[-cyclohexane-1-4′-(3′,4′-dihydro)quinazolin]-2′(1′H)-one], the IC50 worked out at 8 nM.

For `CN1CCN(C(=O)c2ccc(-c3cc(Cl)c4c(c3)C3(CCCCC3)NC(=O)N4)cc2)CC1` [Example 38, 8′-Chloro-6′-[4-(4-methyl-piperazine-1-carbonyl)phenyl]spiro[cyclohexane-1-4′-(3′,4′-dihydro)quinazolin]-2′(1′H)-one], the IC50 was 18 nM.

In the case of `CN(C)CCCNC(=O)c1cccc(-c2cc(Cl)c3c(c2)C2(CCCCC2)NC(=O)N3)c1` [Example 41, 8′-Chloro-6′-[3-(3-N-dimethylamino-propylcarboxamide)phenyl]spiro[-cyclohexane-1-4′-(3′,4′-dihydro)quinazolin]-2′(1′H)-one], the IC50 amounted to 20 nM.

Take `O=C1Nc2c(Cl)ccc(Cl)c2C2(CCCCC2)N1` [Example 15, 5′,8′-Dichlorospiro[cyclohexane-1-4′-3′,4′-dihydro)quinazolin]-2′(1′H)-one]: the IC50 was found to be 14 nM.

For `O=C1Nc2c(Cl)cc(-c3ccc(C(=O)N4CCN(CCOCCO)CC4)cc3)cc2C2(CCCCC2)N1` [Example 54], the IC50 was 13 nM.

For `O=C1Nc2c(Cl)cc(-c3ccccc3)cc2C2(CCCCC2)N1` [Example 26, 8′-Chloro-6′-phenylspiro[cyclohexane-1-4′-(3′,4′-dihydro)quinazolin]-2′(1′H)-one], the IC50 came out at 16 nM.
